Source: US6417399B1, “Amelioration of neurological disorders by the administration of (2R),(3S), and/or (2S),3(S) stereoisomers of valnoctamide” (Yissum Research Development Company of the Hebrew …, priority 1997, dated 2002)
“And” between values parts separate entries of the source, which are not always exact repeats. Equal entries are not always repeated.

Legend:
[1] = animal models; cited from earlier work
[2] = in animals; cited from earlier work
epoxide hydrolase = target: T1, epoxide hydrolase (Homo sapiens, UniProt P07099); settings: racemic VCD; cited from earlier work
T1 construct: decreased clearance of CBZ-E in patients; host or cells: patients in vivo (endogenous enzyme)
T1 sequence (P07099 1-455): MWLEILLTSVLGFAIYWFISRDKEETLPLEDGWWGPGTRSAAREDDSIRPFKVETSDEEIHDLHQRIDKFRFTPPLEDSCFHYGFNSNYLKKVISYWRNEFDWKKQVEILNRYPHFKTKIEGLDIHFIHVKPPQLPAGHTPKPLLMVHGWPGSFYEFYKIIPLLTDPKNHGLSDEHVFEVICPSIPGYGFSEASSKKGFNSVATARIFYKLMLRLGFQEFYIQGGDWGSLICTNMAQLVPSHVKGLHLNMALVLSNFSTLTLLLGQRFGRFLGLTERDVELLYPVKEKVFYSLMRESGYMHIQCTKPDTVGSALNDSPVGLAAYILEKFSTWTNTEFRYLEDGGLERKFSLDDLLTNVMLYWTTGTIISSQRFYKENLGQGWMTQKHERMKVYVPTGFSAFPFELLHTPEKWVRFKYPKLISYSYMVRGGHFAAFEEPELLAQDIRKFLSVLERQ

[3] = in vivo; cited from earlier work
[4] = Pharmacokinetics of VCD stereoisomers in plasma after single oral dose of racemic valnoctamide to healthy subjects; assay type: in vivo, human
Procedure: Healthy Subjects Seven healthy male volunteers, aged 20-31 years, weighing 61 to 85 kg, received 2×200 mg valnoctamide tablets (Nirvanil@) at 08:00 hours after an overnight fast. Venous blood samples were taken through an indwelling catheter 0, 0.5, 1, 2, 3, 4, 5, 6, 8, 10, 12 and 24 hours after dosing. Food was witheld for 4 hours after dosing.
(§1) Plasma Handling and Analytical Assays Plasma samples were separated immediately by centrifugation at 2,000 g for 10 minutes and stored at −20° C. until assaying (VCD is stable at −20° C.). The VCD plasma samples were analyzed by a gas chromatograph (HP 5890 series II)-mass spectrometer (HP 5989A)-GC-MS data system equipped with chiral capillary column. The mass spectrometer was operated in E1 mode at 70eV, the source temperature of the MS was maintained at 200° C. and the quadruple at 100° C. Mass units and their relative abundance were calibrated with perfluorotributylamine (PFTBA). Spectra were collected in the range of […], and the chiral analysis started 18 minutes after injection. Gas chromatograph (GC) oven temperature programming conditions were as follows: 50° C. for 1 minute, then increasing at a rate of 8° C./minute until 100° C., holding for a minute then 4° C./minute until reaching a final temperature of 250° C. The injector temperature is 240° C. and the GC-MS transfer line temperature is 250° C. Inlet pressure is 5 psi with a linear flow rate 20 cm/second. Helium was used as the carrier gas. Chromatographic resolution of the VCD stereoisomers was accomplished by a direct separation on a chiral stationary phase (CSP) column. The CSP consisted of a Chirasil-γ-Dex (octakis (3-O-butanoyl-2,6-di-o-pentyl)-γ-cyclodextrin chemically linked via a 6-mono-octamethylene spacer to a dimethylpolysiloxane. The 0.25 μm Chirasil-γ-Dex was coated on a 25 m×250 μm (id) fused silica capillary column. This CSP of a cyclodextin derivative allows complete baseline resolution of the four stereoisomers (α=1.04, Rs=2.0-2.4) in 24 minutes as depicted in FIG. 2. Intra and inter-day variability in the retention times of the four VCD stereoisomers was less than 10%. A calibration curve was established by spiking drug-free plasma samples with known amounts of racemic VCD at a concentration range of 0.2 mg/L to 8 mg/L (or 0.05 mg/L to 2 mg/L of each of the four VCD stereoisomers).
(§2) Pharmacokinetic and Statistical Analysis Pharmacokinetic parameters were calculated by noncompartmental analysis according to statistical moment theory. Peak plasma concentrations (Cmax) and peak times (tmax) were derived directly from the measured values. The linear terminal slopes (λ) of the log-concentration of each VCD stereoisomer versus time curves were calculated by the peeling procedure. Half life (t½) values were calculated as 0.693/λ. Areas under the plasma concentration versus time curve (AUC), after single dosing, were calculated by the trapezoidal rule with extrapolation to infinity by dividing the last measured concentration by the terminal slope. During repeated administration AUC was calculated over the last two dosing intervals by using the trapezoidal rule. Mean residence time (MRT) was calculated after single dosing as AUMC/AUC, in which AUMC is the area under the concentration×time product versus time curve from zero to infinity. Following single dosing, oral clearance (CL/F, in which F is the oral availability) and apparent volume of distribution at steady state (Vss/F) were calculated as Dose/AUC and as MRT×CL/F, respectively. Following repeated dosing, CL/F was calculated from the quotient of the dose (200 mg) and the AUC obtained during one dosing interval (defined as one-half of the AUC calculated over two consecutive dosing intervals). Comparison of the pharmacokinetic parameters of all four VCD stereoisomers was made by ANOVA.

[5] = Pharmacokinetics of VCD stereoisomers in plasma after single oral dose of racemic valnoctamide to epileptic patients; assay type: in vivo, human; settings: for CL/F / Cmax / MRT / tmax / t½: single oral 400 mg racemic VCD
Procedure: (§3) Patients Six epileptic patients (four men and two women aged 23-35 years, with a body weight of 56-85 kg) were studied. All had been receiving a constant carbamazepine dose (800-1200 mg/day) for at least three months. One patient was also receiving phenytoin (250 mg/day) and a second patient phenobarbital (150 mg/day). Each patient received add-on VCD for eight consecutive days at a dosage of 400 mg on day 1 (single dose day), followed by 200 mg three times daily (tid) for seven days. On the last day, only the morning and the midday doses were administered. Blood samples for plasma VCD levels were collected at 0, 0.25, 0.5, 1, 1.5, 2, 3, 4, 5, 6, 8, 10, 12 and 24 hours after the first and the last morning dose. Additional samples were taken at times 0, 0.5, 1, and 2 hours after the morning dose on the last treatment day.
as §1
as §2, with “Following repeated dosing, CL/F was calculated from the quotient of the dose (200 mg) and the AUC obtained during one dosing interval (defined as one-half of the AUC calculated over two consecutive dosing intervals). Comparison of the pharmacokinetic parameters of all four VCD stereoisomers was made by ANOVA.” left out

[6] = Pharmacokinetics of VCD stereoisomers in plasma after repeated oral dosing of racemic valnoctamide to epileptic patients; assay type: in vivo, human; settings: repeated oral racemic VCD 200 mg tid, last day
Procedure: as §3, §1
as §2, with “Following repeated dosing, CL/F was calculated from the quotient of the dose (200 mg) and the AUC obtained during one dosing interval (defined as one-half of the AUC calculated over two consecutive dosing intervals). Comparison of the pharmacokinetic parameters of all four VCD stereoisomers was made by ANOVA.” left out

[7] = Mean ± SD of seven healthy subjects, single oral 400 mg racemic VCD
[8] = individual healthy subjects, single oral 400 mg racemic VCD
[9] = Mean ± SD of six epileptic patients
[10] = individual epileptic patients on carbamazepine

SMILES: CCCC(CCC)C(N)=O [VPD, Valpromide]
- anticonvulsant potency relative to VPA [1]: three times more potent
- teratogenicity [2]: has not been found to be teratogenic

SMILES: CCC(C)C(CC)C(N)=O (racemic) [VCD, 2-ethyl-3-methyl pentanamide]
- inhibition of the enzyme epoxide hydrolase (epoxide hydrolase): inhibitor of the enzyme epoxide hydrolase
- anticonvulsant potency relative to VPA [1]: three times more potent
- half-life relative to that of VPD [3]: ten times higher

SMILES: CCC(C)C(CC)C(N)=O (single isomer, unassigned; stereoisomer b) [Stereoisomer B]
- CL/F [4, 7]: 8.7 ± 0.9 L/h
- Cmax [4, 7]: 1.3 ± 0.2 mg/L
- MRT [4, 7]: 8 ± 1 h
- tmax [4, 7]: 0.7 ± 0.3 h
- t½ [4, 7]: 5.8 ± 1.1 h
- t½ ([4]; Mean ± SD of seven healthy subjects, single oral 400 mg racemic VCD, listed as stereoisomer B): ~5.8 h
- CL/F [4, 8]: 7.9 L/h (2×) and 9.2 L/h and 8.4 L/h and 10.2 L/h and 8.1 L/h and 9.3 L/h
- Cmax [4, 8]: 1.5 mg/L (2×) and 1.1 mg/L (2×) and 1.4 mg/L (3×)
- MRT [4, 8]: 7.0 h and 10 h (2×) and 7 h and 9 h and 8 h (2×)
- tmax [4, 8]: 1 h (3×) and 0.5 h (4×)
- t½ ([4]; individual healthy subjects, single oral 400 mg racemic VCD (Nirvanil), stereoisomer in plasma): 4.7 h and 7.3 h and 4.6 h and 6.0 h and 5.8 h and 5.2 h and 7.1 h
- CL/F [5, 9]: 80 ± 20 L/h
- Cmax [5, 9]: 410 ± 120 ng/mL
- MRT [5, 9]: 4.0 ± 1.6 h
- tmax [5, 9]: 0.75 ± 0.41 h
- t½ [5, 9]: 3.0 ± 1.3 h
- half lives ([5]; epileptic patients): about 3 h
- CL/F [5, 10]: 108 L/h and 60 L/h and 94 L/h and 84 L/h and 56 L/h and 79 L/h
- Cmax [5, 10]: 310 ng/mL and 560 ng/mL and 300 ng/mL and 480 ng/mL and 510 ng/mL and 320 ng/mL
- MRT [5, 10]: 3.6 h and 5.2 h and 3.3 h and 1.3 h and 5.1 h and 5.6 h
- tmax [5, 10]: 1 h and 0.5 h (4×) and 1.5 h
- t½ [5, 10]: 1.4 h and 4.0 h (2×) and 1.3 h and 3.0 h and 4.1 h
- CL/F [6, 9]: 58 ± 14 L/h
- Cmax [6, 9]: 0.4 ± 0.1 mg/L
- tmax [6, 9]: 1.4 ± 0.3 h
- t½ [6, 9]: 2.2 ± 0.5 h
- CL/F ([6]; individual epileptic patients): 79 L/h and 50 L/h (2×) and 52 L/h and 71 L/h and 46 L/h
- Cmax ([6]; individual epileptic patients): 0.4 mg/L (2×) and 0.5 mg/L (2×) and 0.3 mg/L (2×)
- tmax ([6]; individual epileptic patients): 2.0 h and 1.5 h (3×) and 1.0 h and 1.25 h
- t½ ([6]; individual epileptic patients, last dosing interval): 2.0 h and 1.9 h and 2.9 h and 2.1 h and 4.3 h (2×)
